For orientation: Cmax means the maximum level reached in the sampled fluid or tissue. One may read the Tmax as the time at which the peak concentration occurs.

Read-outs that look alike come from different tables or passages of the source.

For data set [1] the following is noted: cited from earlier work.
Data set [2] in a line: Pharmacokinetic analysis after oral administration of the formulation to rats. It counts as in vivo. The conditions noted are these: male, Sprague Dawley, rat, 5 mg/kg. The protocol:
Male Sprague Dawley Rats (weight 225±25 gm; aged 8 to 10 weeks) were administered orally with the formulation. Each of the tested compounds was dosed at 5 mg/kg at a dose volume of 1 mL/kg. Blood samples were collected at time points 0.25, 0.5, 1, 2, 4, 6, 8 and 24 hours and analyzed the plasma concentrations of administered compound and calculated PK parameters. The plasma concentrations of the tested compounds were measured by liquid chromatography with tandem mass spectrometry (LCMS-MS) using […] extraction method. The plasma concentration-time data was subjected to Non-Compartmental Analysis using Phoenix WinNonlin® (Version 5.3) software to assess the pharmacokinetic parameters. Peak plasma concentrations (Cmax) and time for the peak plasma concentrations (Tmax) were the observed values. The area under the concentration time curve (AUC) was calculated by linear trapezoidal rule.

Where [3] appears, read: CKD patients not on dialysis, week 32.

For `C[C@@H](NCCCc1cccc(C(F)(F)F)c1)c1cccc2ccccc12` [Cinacalcet], in data set [1] (setting [3]), the phosphorus levels is 4.5 ± 1.0 mg/dL and the “phosphorus levels, change” value is on record as “+21.4%”. Besides, in data set [1] (patients with CKD not on dialysis), the “serum calcium levels, frequently observed” value is given as under 8.4 mg/dL.
For the compound `C[C@@H](NC[C@H]1CN(c2cc(C(=O)O)cc(C(F)(F)F)c2)CCO1)c1cccc2ccccc12` [Compound 1, 3-((S)-2-((((R)-1-(naphthalen-1-yl)ethyl)amino)methyl)morpholino)-5-(trifluoromethyl)benzoic acid], in data set [2] (oral, dose volume 1 mL/kg, plasma, sampling to 24 hours, read-out: AUC0-1), the AUC(0-t) turned out to be 7.3 ± 0.5 µM·h. The Cmax in data set [2] (oral, plasma, read-out: Cmax) amounted to 3.6 ± 1 µM. Moreover, the Tmax in data set [2] (oral, plasma, read-out: Tmax) was 15 to 60 min.
For `Cc1ccc(N2C[C@H](CCN[C@H](C)c3cccc4ccccc34)Oc3ccccc32)cc1C(=O)O.Cl` [Compound 2, 2-methyl-5-((S)-2-(2-(((R)-1-(naphthalen-1-yl)ethyl)amino)ethyl)-2H-benzo[b][1,4]oxazin-4(3H)-yl)benzoic acid], in data set [2] (in vivo, po), the AUC(0-t) came to 16 ± 3 µM·h, the Cmax amounted to 4.9 ± 3 µM and the Tmax amounted to 15 min.
The like results for `COc1cc([C@@H](C)NC[C@@H]2Cc3ccccc3[C@H](c3ccc(C)c(C(=O)O)c3C)C2)ccc1F.Cl` [Compound 4, 3-((1R,3S)-3-((((R)-1-(4-fluoro-3-methoxyphenyl)ethyl)amino)methyl)-1,2,3,4-tetrahydronaphthalen-1-yl)-2,6-dimethylbenzoic acid] were, in that order, 5.5 ± 1 µM·h, 1.5 ± 1 µM and 30 to 120 min.

Source of the values: US20230049917A1, “Pharmaceutical Composition of CASR Modulators and Methods and Uses Thereof” (Lupin Limited, priority 2019, published 2023).
